Measurements published in US8288145B2, “Medium supplement for virus production” (AVIR Green Hills Biotechnology, priority 2006, dated 2012).
Where “and” joins values, the source holds several entries; their conditions need not be identical. Identical values can stand only once.

Tests used:
[1] = system: Enzephalomyocarditis virus RNA; details: Borden E. et al. 1979, 1981; cited from earlier work
[2] = system: SV40 virus DNA; details: Borden E. et al. 1979, 1981; cited from earlier work
[3] = system: A/New Caledonia/20/99 (H1N1); type: cell-based, influenza A virus
[4] = system: A/Vienna/28/2006 (H3N2) (A/Wisconsin/67/2005-like); type: cell-based, influenza A virus
[5] = system: B/Vienna/32/2006 (B/Malaysia/2506/2004-like); type: cell-based, influenza B
[6] = system: A/New Caledonia/20/99 (H1N1)-like ΔNS1 virus; type: cell-based, influenza A virus
[7] = system: A/Wisconsin/67/2005 (H3N2)-like virus; type: cell-based, influenza A virus
[8] = system: influenza B virus; type: cell-based

Compound	infectivity of viral RNA [1]	infectivity of viral DNA [2]	less virus obtained when no amphotericin B is added [3]	higher virus titre if grown in the presence of amphotericin B [4]	titre of B virus in the presence of amphotericin B [5]	increase of sensitivity (titre) of TCID50 titration [6]	cytopathic effect of transfectant virus [7]	titre of transfectant virus [7]	clinical samples positive for virus isolation [8]
COC(=O)[C@H]1[C@@H]2C[C@@H](O[C@@H]3O[C@H](C)[C@@H](O)[C@H](N)[C@@H]3O)/C=C/C=C/C=C/C=C/C=C/C=C/C=C/[C@H](C)[C@@H](O)[C@@H](C)[C@H](C)OC(=O)C[C@H](O)C[C@H](O)CC[C@@H](O)[C@H](O)C[C@H](O)C[C@](O)(C[C@@H]1O)O2 [Amphotericin B methyl ester]	increase the infectivity	increase the infectivity							
C[C@@H]1[C@H](O)[C@@H](C)/C=C/C=C/C=C/C=C/C=C/C=C/C=C/[C@H](O[C@@H]2O[C@H](C)[C@@H](O)[C@H](N)[C@@H]2O)C[C@@H]2O[C@](O)(C[C@@H](O)C[C@@H](O)[C@H](O)CC[C@@H](O)C[C@@H](O)CC(=O)O[C@H]1C)C[C@H](O)[C@H]2C(=O)O [amphotericin B]			1 log	≥ 1 log	more than 1E+08 pfu/ml	~1 log	clear cytopathic effect	2E+04 TCID50/ml and 2.0E+04 TCID50/ml	9
